Columns and labels:
HepG2 = test: Cell cytotoxicity assay, HEPG2; type: cell-based; details: HepG2 cells, 5 days at 37° C., XTT dye
Description: (§1) Cells were seeded 24 hours prior to compound addition. Each test compound (serially diluted from 100 μM) was added to Huh7 (1.5×10^4 cells/well) or HepG2 (1.5×10^4 cells/well), and allowed to incubate for 5 days at 37° C. A medium only control was used to determine the minimum absorbance value and an untreated cell value. At the end of the growth period, XTT dye from Polysciences Europe GmbH was added to each well. The absorbance at 450 nm with a reference wavelength of 600 nm was read with a Sunrise (Tecan) using the medium only control wells as blanks. The 50% inhibition value (CC50) was determined by comparing the degree of inhibition (compared to cell control) plotted against compound concentration. Results from the dilution series were fitted to a sigmoidal dose-response curve.
(§2) Compounds of the invention were evaluated in these assays to assess the stability in human intestinal S9 fraction (HIS9) and human liver S9 fraction (HLS9), and for Cell Cytotoxicity in HUH7, HEP3B and HEPG2 cells.

Huh7 = test: Cell cytotoxicity assay, HUH7; type: cell-based; details: Huh7 cells, 5 days at 37° C., XTT dye
Description: as §1, §2

[1] = Stability in human liver S9 fraction (HLS9); type: in vitro ADME; details: human liver S9 0.4 mg protein/mL, 5 μM test compound, 37° C.; for microsomal CLint at 5 μM: liver S9 fraction, pH 7.4
Description: (§3) Stability in Human Intestinal S9 Fraction (HIS9) and in Human Liver S9 Fraction (HLS9),
(§4) Stock solutions of each test compound (10 mM) were prepared in DMSO and stored at −20° C. Prior to the start of the experiment, the test compounds were diluted to 500 μM in 50% acetonitrile in water. The reaction mixture was prepared in a total volume of 250 μL containing 5 mM MgC2, 1 mM NADPH and 5 μM test compound in 50 mM potassium phosphate buffer (pH 7.4). The reaction was initiated by addition of human liver or intestinal S9 fraction with a final concentration of 0.4 mg protein/mL (Xeno Tech). The reaction mixture was incubated on an orbital shaker at 37° C. At the desired time points (0, 10, 30 and 60 minutes) aliquots of 50 μL were taken and the reaction was stopped by mixing with 150 μL acetonitrile containing internal standard. Standard solutions of each test compound were prepared from the 500 μM solution by diluting the solution to a final concentration of 5 μM in boiled human S9 (0.4 mg protein/mL), 5 mM MgCl2 and 50 mM potassium phosphate buffer (pH 7.4). The standards and samples were kept on ice for 30 min then centrifuged at 3 000 g for 20 minutes at 10° C., there after 10 μL of supernatant was mixed with 200 μL 50% acetonitrile in water. 0.5 μM of each test compound in 50% acetonitrile in water was injected into the LC/MS-MS to determine the daughter ion, declustring potential (DP), collision energy (CE) and collision cell exit potential (CXP) in order to develop a LC/MS-MS method. The compounds were separated using a C18 column with a QTRAP5500 system. The mobile phase consisted of solvent A (98% water, 2% acetonitrile, 0.1% acetic acid or 10 mM ammonium acetate) and solvent B (80% acetonitrile, 20% water, 0.1% acetic acid or 10 mM ammonium acetate). Elution of the compounds was performed by using a gradient of solvent B from 0% to 100%. 5 μL of standard points and samples were injected for analysis with QTRAP5500.
(§5) The amount of parent compound was determined on the basis of the peak area for each time point compared to standard which was set to 5 μM. Intrinsic clearance (CLint) and half-life (t1/2) were determined from the disappearance curves of the test compound using Excel software.

[2] = Stability in human intestinal S9 fraction (HIS9); type: in vitro ADME; details: human intestinal S9 0.4 mg protein/mL, 5 μM test compound, 37° C.; for microsomal CLint at 5 μM: intestinal S9 fraction, pH 7.4
Description: as §3, §4, §5

Structure (SMILES) | CC50 (HepG2) [nM] | CC50 (Huh7) [nM] | CLint Liver S9 [1] [µL/min/mg] | CLint Intestinal S9 [2] [µL/min/mg] | microsomal CLint at 5 μM [1] [µL/min/mg] | microsomal CLint at 5 μM [2] [µL/min/mg]
Nc1ccn([C@@H]2CO[C@H](COP(=O)(N[C@@H](Cc3ccccc3)C(=O)OC3CCCCC3)Oc3ccc(Br)cc3)O2)c(=O)n1 (single isomer, unassigned; dia-1) [7 dia-1] | 240 | 1020 | 148 | 147 | – | –
CCC(CC)COC(=O)[C@H](C)NP(=O)(OC[C@H]1OC[C@@H](n2ccc(N)nc2=O)O1)Oc1ccccc1 (single isomer, unassigned; dia-1) [15 dia-1] | 37 | 25 | 167 | 87 | – | –
CC[C@@H](C)OC(=O)[C@H](C)NP(=O)(OC[C@H]1OC[C@@H](n2ccc(N)nc2=O)O1)Oc1cccc(C2CCC2)c1 (single isomer, unassigned; dia-2) [33 dia-2] | – | – | 230 | 75 | – | –
CC(C)OC(=O)[C@@H](C)NP(=O)(OC[C@H]1OC[C@@H](n2ccc(N)nc2=O)O1)Oc1ccccc1 (single isomer, unassigned; dia-2) [17 dia-2] | – | 50000 | 6 | – | – | –
CCCC(CCC)COC(=O)C(Cc1ccccc1)NP(=O)(OCC1OCC(n2ccc(N)nc2=O)O1)Oc1ccccc1 (mixture of isomers) [13 diamix 4:1] | 163 | 663 | 85 | 27 | – | –
CCCCCCCCCCCCCCCC(=O)Nc1ccn([C@@H]2CO[C@H](COP(=O)(N[C@@H](C)C(=O)OC(C)C)Oc3ccccc3)O2)c(=O)n1 (single isomer, unassigned; dia-2) [35 dia-2] | 7 | 11 | 34 | 51 | – | –
CCC[C@H](C)OC(=O)[C@H](C)NP(=O)(OC[C@H]1OC[C@@H](n2ccc(N)nc2=O)O1)Oc1ccccc1 (single isomer, unassigned; dia-1) [20 dia-1] | 74 | 216 | 45 | 21 | – | –
Nc1ccn([C@@H]2CO[C@H](COP(=O)(N[C@@H](Cc3ccccc3)C(=O)OCc3ccccc3)Oc3cccc(C4CC4)c3)O2)c(=O)n1 (single isomer, unassigned; dia-1) [12 dia-1] | 481 | 4330 | 182 | 300 | – | –
CCCC(CCC)COC(=O)[C@H](C)NP(=O)(OC[C@H]1OC[C@@H](n2ccc(N)nc2=O)O1)Oc1ccc(Br)cc1 (single isomer, unassigned; dia-2) [23 dia-2] | – | – | 300 | 20 | – | –
CC(C)OC(=O)[C@H](C)NP(=O)(OC[C@H]1OC[C@@H](n2ccc(N)nc2=O)O1)Oc1cccc2ccccc12 (single isomer, unassigned; dia-2) [5 dia-2] | 114 | 602 | 31 | 13 | – | –
CCC(CC)OC(=O)[C@H](C)NP(=O)(OC[C@H]1OC[C@@H](n2ccc(N)nc2=O)O1)Oc1ccccc1 (single isomer, unassigned; dia-1) [21 dia-1] | 163 | 574 | 61 | 29 | – | –
Nc1ccn([C@@H]2CO[C@H](COP(=O)(N[C@@H](Cc3ccccc3)C(=O)OC3CCCCC3)Oc3ccc(Br)cc3)O2)c(=O)n1 (single isomer, unassigned; dia-2) [7 dia-2] | 58 | 134 | 60 | 27 | – | –
C[C@H](NP(=O)(OC[C@H]1OC[C@@H](n2ccc(N)nc2=O)O1)Oc1ccccc1)C(=O)OCc1ccccc1 (single isomer, unassigned; dia-1) [19 dia-1] | 18 | 91 | 19 | 26 | – | –
C[C@H](NP(=O)(OC[C@H]1OC[C@@H](n2ccc(N)nc2=O)O1)Oc1cccc2ccccc12)C(=O)OC1CCCCC1 (single isomer, unassigned; dia-1) [6 dia-1] | 92 | 258 | 91 | 36 | – | –
C[C@H](NP(=O)(OC[C@H]1OC[C@@H](n2ccc(N)nc2=O)O1)Oc1cccc2ccccc12)C(=O)OC1CCCCC1 (single isomer, unassigned; dia-2) [6 dia-2] | 48 | 316 | 61 | 25 | – | –
CCC[C@@H](C)OC(=O)[C@H](C)NP(=O)(OC[C@H]1OC[C@@H](n2ccc(N)nc2=O)O1)Oc1ccccc1 (single isomer, unassigned) [30 dia-2] | – | – | – | – | 120 | 11
CC(C)OC(=O)[C@@H](C)NP(=O)(OC[C@H]1OC[C@@H](n2ccc(N)nc2=O)O1)Oc1ccccc1 (single isomer, unassigned; dia-1) [17 dia-1] | 50000 | 50000 | 6 | 6 | – | –
CC[C@@H](C)OC(=O)[C@H](C)NP(=O)(OC[C@H]1OC[C@@H](n2ccc(N)nc2=O)O1)Oc1cccc(C2CCC2)c1 (single isomer, unassigned; dia-1) [33 dia-1] | – | – | 180 | 27 | – | –
CCCC(CCC)COC(=O)[C@H](C)NP(=O)(OC[C@H]1OC[C@@H](n2ccc(N)nc2=O)O1)Oc1cccc2ccccc12 (single isomer, unassigned; dia-1) [14 dia-1] | 16 | 216 | 88 | 30 | – | –
CCC(CC)COC(=O)[C@H](C)NP(=O)(OC[C@H]1OC[C@@H](n2ccc(N)nc2=O)O1)Oc1ccccc1 (single isomer, unassigned; dia-2) [15 dia-2] | 19 | 26 | 95 | 36 | – | –
CCCC(CCC)COC(=O)[C@H](C)NP(=O)(OC[C@H]1OC[C@@H](n2ccc(N)nc2=O)O1)Oc1cccc2ccccc12 (single isomer, unassigned; dia-2) [14 dia-2] | 12 | 200 | 159 | 59 | – | –
C[C@H](NP(=O)(OC[C@H]1OC[C@@H](n2ccc(N)nc2=O)O1)Oc1cccc2ccccc12)C(=O)OC1CCCC1 (single isomer, unassigned; dia-2) [22 dia-2] | 11 | 40 | 43 | 34 | – | –
CCCC(CCC)COC(=O)[C@H](C)NP(=O)(OC[C@H]1OC[C@@H](n2ccc(N)nc2=O)O1)Oc1ccccc1 (single isomer, unassigned; dia-1) [8 dia-1] | 7 | 123 | – | – | – | –
CC[C@@H](C)OC(=O)[C@H](C)NP(=O)(OC[C@H]1OC[C@@H](n2cc(F)c(N)nc2=O)O1)Oc1ccccc1 (single isomer, unassigned) [32 dia-2] | – | – | – | – | 27 | 8
CC[C@H](C)OC(=O)[C@H](C)NP(=O)(OC[C@H]1OC[C@@H](n2ccc(N)nc2=O)O1)Oc1ccccc1 (single isomer, unassigned) [31 dia-2] | – | – | – | 6 | 8 | –

Source: US11447511B2, “Dioxolane analogues of uridine for the treatment of cancer” (MEDIVIR AB, priority 2014, dated 2022)
